Test results as given in US8993756B2 (Merck Sharp & Dohme Corp., priority 2011, dated 2015).

Legend:
JAK3 = JAK3 (Homo sapiens (Human), UniProt P52333); assay: Jak Biochemical HTRF Assay (JAK3); details: recombinant GST-tagged catalytic domain, [ATP] 2.9 μM
JAK2 = JAK2 (Homo sapiens (Human), UniProt O60674); assay: Jak Biochemical HTRF Assay (JAK2); details: recombinant GST-tagged catalytic domain, [ATP] 8.5 μM
Chain of JAK2 (O60674 849-1124): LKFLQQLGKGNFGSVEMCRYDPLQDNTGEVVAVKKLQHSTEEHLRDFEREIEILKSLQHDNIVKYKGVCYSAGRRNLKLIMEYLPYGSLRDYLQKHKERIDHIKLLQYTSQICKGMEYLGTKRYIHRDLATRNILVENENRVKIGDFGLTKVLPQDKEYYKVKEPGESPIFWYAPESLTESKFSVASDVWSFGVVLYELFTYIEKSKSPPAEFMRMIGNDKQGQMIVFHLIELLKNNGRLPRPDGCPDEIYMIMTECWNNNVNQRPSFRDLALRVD

Chain of JAK3 (P52333 822-1111): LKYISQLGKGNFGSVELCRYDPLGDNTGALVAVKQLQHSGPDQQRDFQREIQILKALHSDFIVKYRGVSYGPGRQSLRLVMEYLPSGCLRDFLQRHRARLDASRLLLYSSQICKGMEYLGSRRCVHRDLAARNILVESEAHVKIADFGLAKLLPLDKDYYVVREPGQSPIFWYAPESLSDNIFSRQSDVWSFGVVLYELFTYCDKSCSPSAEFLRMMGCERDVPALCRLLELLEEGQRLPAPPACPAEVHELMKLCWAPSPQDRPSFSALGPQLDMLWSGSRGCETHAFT

Structure (SMILES) | IC50 (JAK3) [nM] | IC50 (JAK2) [nM] | IC50 (JAK3; given as range class) [nM] | IC50 (JAK2; given as range class) [nM]
CCOC(=O)c1c[nH]c2ncnc(-c3ccc(N4CCS(=O)(=O)CC4)cc3)c12 [Example 1-97, ethyl 4-[4-(1,1-dioxidothiomorpholin-4-yl)phenyl]-7H-pyrrolo[2,3-d]pyrimidine-5-carboxylate] | 6.8 | 348 | – | –
C=C(C)C(=O)N(C)c1cccc(-c2ncnc3[nH]cc(C4CCOCC4)c23)c1 [Example 24, N-Methyl-N-(3-(5-(tetrahydro-2H-pyran-4-yl)-7H-pyrrolo[2,3-d]pyrimidin-4-yl)phenyl)methacrylamide] | – | – | > 500 | > 500
CCOC(=O)c1c[nH]c2ncnc(-c3ccc4c(c3)OCO4)c12 [Example 1-48, ethyl 4-(1,3-benzodioxol-5-yl)-7H-pyrrolo[2,3-d]pyrimidine-5-carboxylate] | 3.8 | 66 | – | –
C=C(C)C(=O)Nc1cncc(-c2ncnc3[nH]cc(C(=O)OCC)c23)c1 [Example 4-3, Ethyl 4-{5-[(2-methylacryloyl)amino]pyridin-3-yl}-7H-pyrrolo[2,3-d]pyrimidine-5-carboxylate] | 0.085 | > 1500 | – | –
CCOC(=O)c1c[nH]c2ncnc(-c3cccc(N4CCS(=O)(=O)CC4)c3)c12 [Example 1-95, ethyl 4-[3-(1,1-dioxidothiomorpholin-4-yl)phenyl]-7H-pyrrolo[2,3-d]pyrimidine-5-carboxylate] | – | – | 10 to 500 | > 500
CCOC(=O)c1c[nH]c2ncnc(-c3cccc(OCC(F)(F)F)c3)c12 [Example 1-21, ethyl 4-[3-(2,2,2-trifluoroethoxy)phenyl]-7H-pyrrolo[2,3-d]pyrimidine-5-carboxylate] | 3.5 | 73 | – | –
CCOC(=O)c1c[nH]c2ncnc(-c3cccc(F)c3)c12 [Example 1-42, ethyl 4-(3-fluorophenyl)-7H-pyrrolo[2,3-d]pyrimidine-5-carboxylate] | 9 | 121 | – | –
CCOC(=O)c1c[nH]c2ncnc(-c3cccc4[nH]ncc34)c12 [Example 1-64, ethyl 4-(1H-indazol-4-yl)-7H-pyrrolo[2,3-d]pyrimidine-5-carboxylate] | – | – | 10 to 500 | > 500
CCOC(=O)c1c[nH]c2ncnc(-c3ccc4nnn(C)c4c3)c12 [Example 1-67, ethyl 4-(1-methyl-1H-benzotriazol-6-yl)-7H-pyrrolo[2,3-d]pyrimidine-5-carboxylate] | – | – | 10 to 500 | > 500
CCOC(=O)c1c[nH]c2ncnc(-c3ccccc3N)c12 [Example 1-55, ethyl 4-(2-aminophenyl)-7H-pyrrolo[2,3-d]pyrimidine-5-carboxylate] | – | – | 10 to 500 | > 500
CCOC(=O)c1c[nH]c2ncnc(-c3ccc4scnc4c3)c12 [Example 1-82, ethyl 4-(1,3-benzothiazol-5-yl)-7H-pyrrolo[2,3-d]pyrimidine-5-carboxylate] | – | – | 10 to 500 | 10 to 500
C=CC(=O)Nc1cc(-c2ncnc3[nH]cc(C(=O)OCC)c23)ccc1Cl [Example 4-14, ethyl 4-[3-(acryloylamino)-4-chlorophenyl]-7H-pyrrolo[2,3-d]pyrimidine-5-carboxylate] | 0.066 | > 1500 | – | –
C=C(C)C(=O)Nc1cccc(-c2ncnc3[nH]cc(C(=O)OCC)c23)c1C [Example 4-13, ethyl 4-{2-methyl-3-[(2-methylacryloyl)amino]phenyl}-7H-pyrrolo[2,3-d]pyrimidine-5-carboxylate] | – | – | 10 to 500 | > 500
CCOC(=O)c1c[nH]c2ncnc(-c3ccc4cn[nH]c4c3)c12 [Example 1-76, ethyl 4-(1H-indazol-6-yl)-7H-pyrrolo[2,3-d]pyrimidine-5-carboxylate] | – | – | 10 to 500 | 10 to 500
C=C(C)C(=O)Nc1cc(-c2ncnc3[nH]cc(C(=O)OCC)c23)ccc1C#N [Example 4-27, ethyl 4-{4-cyano-3-[(2-methylacryloyl)amino]phenyl}-7H-pyrrolo[2,3-d]pyrimidine-5-carboxylate] | 0.14 | > 1500 | – | –
CCOC(=O)c1c[nH]c2ncnc(-c3cccs3)c12 [Example 1-56, ethyl 4-thiophen-2-yl-7H-pyrrolo[2,3-d]pyrimidine-5-carboxylate] | – | – | 10 to 500 | 10 to 500
C=C(C)C(=O)Nc1cc(-c2ncnc3[nH]cc(C(=O)OCC)c23)ccc1F [Example 4-16, ethyl 4-{4-fluoro-3-[(2-methylacryloyl)amino]phenyl}-7H-pyrrolo[2,3-d]pyrimidine-5-carboxylate] | 0.07 | > 1500 | – | –
C=C(C)C(=O)Nc1cc(-c2ncnc3[nH]cc(C(=O)OCC)c23)ccc1S(C)(=O)=O [Example 4-29, ethyl 4-{3-[(2-methylacryloyl)amino]-4-(methylsulfonyl)phenyl}-7H-pyrrolo[2,3-d]pyrimidine-5-carboxylate] | 0.087 | > 1500 | – | –
CCOC(=O)c1c[nH]c2ncnc(-c3ccc(COC)c(N)c3)c12 [Example 1-33, ethyl 4-[3-amino-4-(methoxymethyl)phenyl]-7H-pyrrolo[2,3-d]pyrimidine-5-carboxylate] | – | – | 10 to 500 | > 500
C=C(C)C(=O)Nc1cccc(-c2ncnc3[nH]cc(C4CCCO4)c23)c1 (stereo not drawn) [Example 25, N-(3-(5-(Tetrahydrofuran-2-yl)-7H-pyrrolo[2,3-d]pyrimidin-4-yl)phenyl)methacrylamide] | – | – | 10 to 500 | > 500
CCOC(=O)c1c[nH]c2ncnc(C3=CCN(C(=O)OC(C)(C)C)C3)c12 [Example 1-20, ethyl 4-[1-(tert-butoxycarbonyl)-2,5-dihydro-1H-pyrrol-3-yl]-7H-pyrrolo[2,3-d]pyrimidine-5-carboxylate] | – | – | 10 to 500 | > 500
CCOC(=O)c1c[nH]c2ncnc(-c3ccc4c(c3)NCC4)c12 [Example 1-31, ethyl 4-(2,3-dihydro-1H-indol-6-yl)-7H-pyrrolo[2,3-d]pyrimidine-5-carboxylate] | 4.6 | 91 | – | –
CCOC(=O)c1c[nH]c2ncnc(-c3cccc(CN4CCOCC4)c3)c12 [Example 1-96, ethyl 4-[3-(morpholin-4-ylmethyl)phenyl]-7H-pyrrolo[2,3-d]pyrimidine-5-carboxylate] | – | – | 10 to 500 | > 500
C=C(C)C(=O)Nc1cccc(-c2ncnc3[nH]cc(-c4nccs4)c23)c1 [Example 31, N-(3-(5-(Thiazol-2-yl)-7H-pyrrolo[2,3-d]pyrimidin-4-yl)phenyl)methacrylamide] | – | – | 10 to 500 | > 500
CCOC(=O)c1c[nH]c2ncnc(-c3cccc(NC(=O)/C=C/CN(C)C)c3)c12 [Example 16, Ethyl-4-(3-{[(2E)-4-(dimethylamino)but-2-enoyl]amino}phenyl)-7H-pyrrolo[2,3-d]-pyrimidine-5-carboxylate] | 0.2 | > 1500 | – | –

Continued, values first:

IC50 (JAK3) [nM] | IC50 (JAK2) [nM] | IC50 (JAK3; given as range class) [nM] | IC50 (JAK2; given as range class) [nM] | Structure (SMILES)
– | – | 10 to 500 | > 500 | CCOC(=O)c1c[nH]c2ncnc(-c3cccc(Nc4nccnc4C#N)c3)c12 [Example 6-2, Ethyl-4-{3-[(3-cyanopyrazin-2-yl)amino]phenyl}-7H-pyrrolo[2,3-d]pyrimidine-5-carboxylate]
– | – | 10 to 500 | > 500 | CCOC(=O)c1c[nH]c2ncnc(-c3cccc(-c4ccnc(C#N)n4)c3)c12 [Example 7-1, Ethyl 4-(3-(2-cyanopyrimidin-4-yl)phenyl)-7H-pyrrolo[2,3-d]pyrimidine-5-carboxylate]
– | – | 10 to 500 | > 500 | CCOC(=O)c1c[nH]c2ncnc(-c3cccc(NC(=O)/C=C/c4c(C)nn(C)c4C)c3)c12 [Example 5-15, ethyl 4-(3-{[(2E)-3-(1,3,5-trimethyl-1H-pyrazol-4-yl)prop-2-enoyl]amino}phenyl)-7H-pyrrolo[2,3-d]pyrimidine-5-carboxylate]
– | – | 10 to 500 | > 500 | C=C(C)C(=O)Nc1cccc(-c2ncnc3[nH]cc(-c4ccncc4)c23)c1 [Example 21-3, N-(3-(5-(pyridin-4-yl)-7H-pyrrolo[2,3-d]pyrimidin-4-yl)phenyl)methacrylamide]
0.66 | > 1500 | – | – | C=C(CN1CCOCC1)C(=O)Nc1cccc(-c2ncnc3[nH]cc(C(=O)OCC)c23)c1 [Example 5-41, ethyl 4-(3-{[2-(morpholin-4-ylmethyl)acryloyl]amino}phenyl)-7H-pyrrolo[2,3-d]pyrimidine-5-carboxylate]
– | – | 10 to 500 | > 500 | CCOC(=O)c1c[nH]c2ncnc(-c3cccc(NC(=O)c4c[nH]c(=O)[nH]4)c3)c12 [Example 5-20, ethyl 4-(3-{[(2-oxo-2,3-dihydro-1H-imidazol-4-yl)carbonyl]amino}phenyl)-7H-pyrrolo[2,3-d]pyrimidine-5-carboxylate]
– | – | 10 to 500 | > 500 | CCOC(=O)c1c[nH]c2ncnc(-c3cccc(NC(=O)NCC#N)c3)c12 [Example 9-1, Ethyl 4-(3-(3-(cyanomethyl)ureido)phenyl)-7H-pyrrolo[2,3-d]pyrimidine-5-carboxylate]
3.4 | 183 | – | – | COc1ccccc1-c1c[nH]c2ncnc(-c3ccccc3)c12 [Example 33-1, 5-(2-Methoxyphenyl)-4-phenyl-7H-pyrrolo[2,3-d]pyrimidine]
0.22 | > 1500 | – | – | C=C(Cl)C(=O)Nc1cccc(-c2ncnc3[nH]cc(C(=O)OCC)c23)c1 [Example 5-6, ethyl 4-{3-[(2-chloroacryloyl)amino]phenyl}-7H-pyrrolo[2,3-d]pyrimidine-5-carboxylate]
3.1 | 93 | – | – | COc1cccc(-c2c[nH]c3ncnc(-c4ccccc4)c23)c1 [Example 32-3, 5-(3-methoxyphenyl)-4-phenyl-7H-pyrrolo[2,3-d]pyrimidine]
0.056 | > 1500 | – | – | CCOC(=O)c1c[nH]c2ncnc(-c3cccc(NC(=O)C4(C)CO4)c3)c12 (stereo not drawn) [Example 18-1, Ethyl-4-(3-(2-methyloxirane-2-carboxamido)phenyl)-7H-pyrrolo[2,3-d]pyrimidine-5-carboxylate]
